Here are results for 37 compounds from US20040023972A1, “Use of substituted imidazo[1,2-a]-pyridin-, -pyrimidin-and-pyrazin-3-yl-amine derivatives in the preparation of medicaments for inhibiting NOS” (Gruenenthal GmbH, priority 2000, published 2004).

For the assay, the target named is T1, NO synthase (Rattus norvegicus, UniProt P29476).
T1 construct: the supernatant was then removed by decantation and frozen in portions at −80° C; from tissue; host or cells: rat cerebellum, 20,000 g supernatant of homogenate
As to the kind of experiment: HTS-NOS assay (NOS assay): conversion of radioactive arginine, cation-exchanger filter plate. The note with it: for inhibition at 10 µM: read-out: HTS-NOS assay: % inhibition (10 μM); for NOS assay % inhibition: Table 5, concentration not given. The class given is biochemical. The method, boiled down:
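Percent inhibition was derived by comparing remaining radioactive arginine with compound-free controls. Arginine retained on phosphate cation-exchanger filters was counted after citrulline washout, following a 5-60 min room-temperature (25 °C) reaction of labelled arginine, NADPH-containing medium and rat cerebellar homogenate supernatant.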

Broadly, the inhibition is the drop in the measured response relative to a control, in per cent. Turning to `Cc1cccn2c(NC(C)(C)CC(C)(C)C)c(C3CCCCC3)nc12` [Example 139, (2-Cyclohexyl-8-methyl-imidazo[1,2-a]-pyridin-3-yl)-(1,1,3,3-tetramethyl-butyl)-amine], the inhibition at 10 µM amounted to 51%.

Regarding `Cc1ccn2c(NC3CCCCC3)c(-c3ccccc3Br)nc2c1` [Example 100, [2-(2-Bromophenyl)-7-methyl-imidazo[1,2-a]pyridin-3-yl]-cyclohexyl-amine], the inhibition at 10 µM was found to be 50%.

On to `CC(=O)N(c1c(C)cccc1C)c1c(C(C)(C)C)nc2cc(C)cc(C)n12` [Example 179, N-(2-tert-butyl-5,7-dimethyl-imidazo[1,2-a]pyridin-3-yl)-N-(2,6-dimethylphenyl)-acetamide], for which the inhibition at 10 µM stood at 60%.

On to `CC(=O)N(c1c(-c2cccc(Cl)c2Cl)nc2ccccn12)C1CCCCC1` [Example 273, N-cyclohexyl-N-[2-(2,3-dichloro-phenyl)-imidazo[1,2-a]pyridin-3-yl]-acetamide], for which the inhibition at 10 µM is 55%.

Take `[C-]#[N+]CCCCCCN(C(C)=O)c1c(-c2cccnc2)nc2cc(C)ccn12` [Example 241, {6-[acetyl-(7-methyl-2-pyridin-3-yl-imidazo[1,2-a]pyridin-3-yl)-amino]-hexyl}-methylidyne-ammonium]: the “HTS-NOS assay: % inhibition (10 μM)” value was 62%.

Consider `C#[N+]CCCCCCNc1c(-c2cccnc2)nc2cc(C)ccn12` [Example 19, Methylidyne-[6-(7-methyl-2-pyridin-3-yl-imidazo[1,2-a]pyridin-3-ylamino)-hexyl]-ammonium], for which the “HTS-NOS assay: % inhibition (10 μM)” value is 53%.

Consider `Cc1cc(C)n2c(Nc3c(C)cccc3C)c(-c3cccc(Cl)c3Cl)nc2c1` [Example 78, [2-(2,3-Dichlorophenyl)-5,7-dimethyl-imidazo[1,2-a]pyridin-3-yl]-(2,6-dimethyl-phenyl)-amine], for which the inhibition at 10 µM came out at 61%.

With `CC(=O)N(c1c(-c2ccco2)nc2c(C(=O)O)cccn12)C(C)(C)CC(C)(C)C` [Example 267, 3-[acetyl-(1,1,3,3-tetramethyl-butyl)-amino]-2-furan-2-yl-imidazo[1,2-a]pyridine-8-carboxylic acid], the inhibition at 10 µM stood at 62%.

Consider `CC(=O)N(c1c(-c2cccc(Oc3ccc(Cl)cc3)c2)nc2ccccn12)C1CCCCC1` [Example 269, N-{2-[3-(4-chloro-phenoxy)-phenyl]-imidazo[1,2-a]pyridin-3-yl}-N-cyclohexyl-acetamide], for which the inhibition at 10 µM came out at 51%.

Take `CC(=O)N(c1c(-c2ccc([N+](=O)[O-])o2)nc2cc(C)cc(C)n12)C1CCCCC1` [Example 173, N-cyclohexyl-N-[5,7-dimethyl-2-(5-nitro-furan-2-yl)-imidazo[1,2-a]pyridin-3-yl]-acetamide]: the inhibition at 10 µM amounted to 67%.

On to `Cc1cc(C)n2c(NC3CCCCC3)c(-c3ccc([N+](=O)[O-])o3)nc2c1` [Example 104, Cyclohexyl-[5,7-dimethyl-2-(5-nitro-furan-2-yl)-imidazo[1,2-a]pyridin-3-yl]-amine], for which the inhibition at 10 µM was 63%.

As for `CCCCN(C(C)=O)c1c(-c2ccc(C)cc2)nc2nc(C)ccn12` [Example 287, N-butyl-N-(7-methyl-2-p-tolyl-imidazo[1,2-a]pyrimidin-3-yl)-acetamide], the inhibition at 10 µM was determined as 58%.

Consider `CC(=O)N(c1c(-c2cc3ccccc3o2)nc2cc(C)ccn12)C(C)(C)CC(C)(C)C` [Example 216, N-(2-benzofuran-2-yl-7-methyl-imidazo[1,2-a]pyridin-3-yl)-N-(1,1,3,3-tetramethyl-butyl)-acetamide], for which the inhibition at 10 µM was 50%.

Take `Cc1cc(C)n2c(NC(C)(C)CC(C)(C)C)c(-c3ccncc3)nc2c1` [Example 3, (5,7-Dimethyl-2-pyridin-4-yl-imidazo[1,2-a]-pyridin-3-yl)-(1,1,3,3-tetramethyl-butyl)-amine]: the inhibition at 10 µM turned out to be 60%.

Regarding `CCCCN(C(C)=O)c1c(-c2ccccc2OC)nc2ccccn12` [Example 237, N-butyl-N-[2-(2-methoxy-phenyl)-imidazo[1,2-a]pyridin-3-yl]-acetamide], the inhibition at 10 µM came out at 55%.

Take `CC(=O)N(c1c(-c2ccc(C(=O)O)o2)nc2cc(C)cc(C)n12)C(C)(C)CC(C)(C)C` [Example 154, 5-{3-[acetyl-(1,1,3,3-tetramethyl-butyl)-amino]-5,7-dimethyl-imidazo[1,2-a]-pyridin-2-yl}-furan-2-carboxylic acid]: the inhibition at 10 µM worked out at 60%.

Consider `Cc1ccn2c(NC(C)(C)CC(C)(C)C)c(-c3cccc(O)c3)nc2c1` [Example 83, 3-[7-Methyl-3-(1,1,3,3-tetramethyl-butylamino)-imidazo[1,2-a]pyridin-2-yl]-phenol], for which the inhibition at 10 µM was 60%.

For `COc1ccccc1-c1nc2cc(C)ccn2c1NC(C)(C)CC(C)(C)C` [Example 101, [2-(2-Methoxy-phenyl)-7-methyl-imidazo[1,2-a]pyridin-3-yl]-(1,1,3,3-tetramethyl-butyl)-amine], the inhibition at 10 µM was found to be 58%.

As for `CCc1ccn2c(Nc3ccc(F)c(Cl)c3)c(-c3cc4ccccc4o3)nc2c1` [Example 318, (2-Benzofuran-2-yl-7-ethyl-imidazo[1,2-a]-pyridin-3-yl)-(3-chloro-4-fluoro-phenyl)-amine], the inhibition at 10 µM was 52%.

Regarding `Cc1ccc2nc(-c3ccc(C(=O)O)s3)c(NC(C)(C)C)n2c1` [Example 127, 5-(3-Tert-butylamino-6-methyl-imidazo[1,2-a]pyridin-2-yl)-thiophene-2-carboxylic acid], the inhibition at 10 µM came to 52%.

In the case of `Cc1ccn2c(NC(C)(C)C)c(-c3ccco3)nc2c1` [Example 68, Tert-butyl-(2-furan-2-yl-7-methyl-imidazo[1,2-a]pyridin-3-yl)-amine], the inhibition at 10 µM was determined as 57%.

Regarding `Cc1cc(C)n2c(NC3CCCC3)c(-c3ccoc3)nc2c1.Cl` [Example 307, Cyclopentyl-(2-furan-3-yl-5,7-dimethyl-imidazo(1,2-a]pyridin-3-yl)-amine hydrochloride], the “NOS assay % inhibition” value amounted to 57%.

In the case of `CC(=O)N(c1c(C)nc2c(Br)cc(Br)cn12)C(C)(C)C` [Example 288, N-tert-butyl-N-(6,8-dibromo-2-methyl-imidazo[1,2-a]pyridin-3-yl)-acetamide], the inhibition at 10 µM was 62%.

Consider `[C-]#[N+]CCCCCCNc1c(-c2cc3ccccc3c3ccccc23)nc2cc(C)ccn12` [Example 118, Methylidyne-[6-(7-methyl-2-phenanthren-9-yl-imidazo[1,2-a]pyridin-3-ylamino)-hexyl]-ammonium], for which the “HTS-NOS assay: % inhibition (10 μM)” value was found to be 56%.

Regarding `CC(=O)N(c1c(C)cccc1C)c1c(-c2cccc(Cl)c2Cl)nc2cc(C)ccn12` [Example 160, N-[2-(2,3-dichloro-phenyl)-7-methyl-imidazo[1,2-a]pyridin-3-yl]-N-(2,6-dimethyl-phenyl)-acetamide], the inhibition at 10 µM was determined as 55%.

Turning to `CC(=O)OCc1ccc(-c2nc3cc(C)ccn3c2N(C(C)=O)C2CCCCC2)o1` [Example 167, acetic acid 5-[3-(acetyl-cyclohexyl-amino)-7-methyl-imidazo[1,2-a]pyridin-2-yl]-furan-2-yl methyl ester], the “HTS-NOS assay: % inhibition (10 μM)” value amounted to 68%.

With `CC(=O)N(c1c(C)cccc1C)c1c(-c2cc3ccccc3o2)nc2cc(C)cc(C)n12` [Example 189, N-(2-benzofuran-2-yl-5,7-dimethyl-imidazo[1,2-a]pyridin-3-yl)-N-(2,6-dimethylphenyl)-acetamide], the inhibition at 10 µM turned out to be 63%.

`C#[N+]CCCCCCN(C(C)=O)c1c(-c2ccccc2OC)nc2ccc([N+](=O)[O-])cn12` [Example 238, (6-{acetyl-[2-(2-methoxy-phenyl)-6-nitro-imidazo[1,2-a]pyridin-3-yl]-amino}-hexyl)-methylidyne-ammonium]: the “HTS-NOS assay: % inhibition (10 μM)” value was determined as 52%.

In the case of `[C-]#[N+]CCCCCCNc1c(-c2cccnc2)nc2cc(C)cc(C)n12` [Example 59, [6-(5,7-Dimethyl-2-pyridin-3-yl-imidazo[1,2-a]pyridin-3-ylamino)-hexyl]-methylidyne-ammonium], the “HTS-NOS assay: % inhibition (10 μM)” value is 57%.

As to `CC(=O)N(c1c(-c2ccccn2)nc2cc(C)ccn12)C1CCCCC1` [Example 263, N-cyclohexyl-N-(7-methyl-2-pyridin-2-yl-imidazo[1,2-a]pyridin-3-yl)-acetamide], the inhibition at 10 µM turned out to be 64%.

In the case of `CCCc1cccc2nc(-c3cccs3)c(N(C(C)=O)C(C)(C)C)n12` [Example 278, N-tert-butyl-N-(5-propyl-2-thiophen-2-yl-imidazo[1,2-a]pyridin-3-yl)-acetamide], the inhibition at 10 µM was 55%.

`CC(=O)N(c1c(-c2ccc(C(=O)O)s2)nc2ccccn12)C(C)(C)CC(C)(C)C` [Example 176, 5-{3-[acetyl-(1,1,3,3-tetramethyl-butyl)-amino]-imidazo[1,2-a]pyridin-2-yl}-thiophene-2-carboxylic acid]: the inhibition at 10 µM was 50%.

In the case of `Cc1cc(C)n2c(NC3CCCCC3)c(-c3cccnc3)nc2c1` [Example 27, Cyclohexyl-(5,7-dimethyl-2-pyridin-3-yl-imidazo[1,2-a]pyridin-3-yl)-amine], the inhibition at 10 µM worked out at 62%.

Turning to `Cc1ccn2c(NC(C)(C)CC(C)(C)C)c(C)nc2c1` [Example 40, (2,7-Dimethyl-imidazo[1,2-a]pyridin-3-yl)-(1,1,3,3-tetramethyl-butyl)-amine], the inhibition at 10 µM was determined as 61%.

Regarding `Cc1ccn2c(NCc3ccccc3)c(-c3ccsc3)nc2c1.Cl` [Example 309, Benzyl-(7-methyl-2-thiophen-3-yl-imidazo-[1,2-a]pyridin-3-yl)-amine hydrochloride], the “NOS assay % inhibition” value came out at 45%.

As for `Cc1cc(C)n2c(NC3CCCCC3)c(C)nc2c1` [Example 35, Cyclohexyl-(2,5,7-trimethyl-imidazo[1,2-a]-pyridin-3-yl)-amine], the inhibition at 10 µM worked out at 55%.

As to `Cc1ccn2c(NC3CCCCC3)c(-c3cccc4ccccc34)nc2c1` [Example 16, Cyclohexyl-(7-methyl-2-naphthalen-1-yl-imidazo[1,2-a]pyridin-3-yl)-amine], the inhibition at 10 µM came out at 56%.
